“Also recorded” adds a separate entry of the source.
What was measured:
Type in all cases: cell-based
CRBN = molecular target: T1, CRBN (Homo sapiens, UniProt Q96SW2); assay: CRBN inverse MAPPIT competition assay against TMP-lenalidomide hybrid ligand; conditions: 300 nM TMP-lenalidomide; leptin; HEK293T; specificity versus gp130-REM2 control (CTRL)
T1 construct: expressed in transfected cells; host or cells: HEK293T
Description: As in Example 6, HEK293T cells were transfected with a plasmid encoding E. coli Dihydrofolate Reductase (DHFR) fused to the tails of the cytoplasmic domain of a mutated leptin receptor (pCLG-DHFR), a plasmid encoding a CRBN prey fused to the gp130 cytoplasmic domain or a plasmid encoding a gp130-REM2 control fusion that can directly interact with the leptin receptor of the DHFR fusion protein, and the STAT3 responsive pXP2d2-rPAPI-luciferase reporter plasmid—using a standard transfection method, as described (Lievens, et al. “Array MAPPIT: high-throughput interactome analysis in mammalian cells.” Journal of Proteome Research 8.2 (2009): 877-886). […] Data points in FIGS. 10A-B represent the average luciferase activity of triplicate samples derived from cells treated with leptin+test compound for the REM2 control (CTRL) or cells treated with leptin+hybrid ligand+test compound (CRBN) relative to leptin (CTRL) or leptin+hybrid ligand (CRBN) only treated samples (the signals obtained in absence of added test compound for both cases is set at 100% of luciferase activity on y-axis). Error bars represent standard deviations. Curves were fit using 4-parameter nonlinear regression in […] PRISM software.

DCAF15-RBM39 binding [1] = molecular target: T2, DCAF15-RBM39 binding (Homo sapiens, UniProt Q66K64); assay: MAPPIT inverse assay, RBM39 receptor fusion + DCAF15 gp130 fusion; conditions: inverse configuration; leptin; HEK293T
T2 construct: expressed in transfected cells; host or cells: HEK293T
Description: (§1) In this example, MAPPIT forward and inverse assays were developed that enable the assessment of sulfonamides to induce binding between DCAF15 and RBM39. […] The experimental setup was according to the procedure described before, using the following plasmid constructs encoding the MAPPIT receptor and gp130 fusions: in forward mode the DCAF15 bait was fused to a MAPPIT chimeric receptor construct containing the extracellular leptin receptor domain (pCLL-DCAF15) and RBM39 proteins was fused to the partial gp130 domain; in inverse mode, the DCAF15 bait was fused to the partial gp130 domain and RBM39 was fused to a MAPPIT transmembrane receptor (pCLG-RBM39). […] Cells were treated with leptin without or with the indicated dose of test compound (indisulam, tasisulam, CQS or E7820) at 24 hours after transfection. Luciferase activity was measured 24 hours after test compound treatment using the Luciferase Assay System kit (PROMEGA, Madison, Wis.) with an Ensight plate reader (PERKIN ELMER LIFE SCIENCES, Waltham, Mass.). […] Error bars represent standard deviations. […] The results shown in FIG. 12 indicate that only in the inverse assay mode sulfonamide-induced DCAF15-RBM39 binding can be observed.

DCAF15-RBM39 binding [2] = molecular target: T2, DCAF15-RBM39 binding; assay: MAPPIT forward assay, DCAF15 receptor fusion + RBM39 gp130 fusion; conditions: forward configuration; leptin; HEK293T
Description: as §1

## Cc1nc2cccc(N)c2c(=O)n1C1CCC(=O)NC1=O (stereo not drawn) [CC-122]
CRBN
  competition with TMP-lenalidomide hybrid ligand for binding to CRBN (inhibition of luciferase signal): specifically inhibit hybrid-ligand induced luciferase reporter activation in a dose-dependent manner; also recorded: competed efficiently

## Cc1ccc(NS(=O)(=O)c2cccc(C#N)c2)c2[nH]cc(C#N)c12 [E7820]
DCAF15-RBM39 binding [1]
  sulfonamide-induced recruitment of RBM39 to DCAF15 (luciferase signal): dose-dependent luciferase signal increase

## NS(=O)(=O)c1ccc(S(=O)(=O)Nc2cccc3c(Cl)c[nH]c23)cc1 [indisulam]
DCAF15-RBM39 binding [2]
  sulfonamide-induced recruitment of RBM39 to DCAF15 (luciferase signal): only in inverse mode could a dose-dependent luciferase signal increase be observed
DCAF15-RBM39 binding [1]
  sulfonamide-induced recruitment of RBM39 to DCAF15 (luciferase signal): dose-dependent luciferase signal increase

## Nc1cccc2c1C(=O)N(C1CCC(=O)NC1=O)C2=O (stereo not drawn) [pomalidomide]
CRBN
  competition with TMP-lenalidomide hybrid ligand for binding to CRBN (inhibition of luciferase signal): specifically inhibit hybrid-ligand induced luciferase reporter activation in a dose-dependent manner; also recorded: competed efficiently

## O=C(NS(=O)(=O)c1ccc(Br)s1)c1ccc(Cl)cc1Cl [tasisulam]
DCAF15-RBM39 binding [1]
  sulfonamide-induced recruitment of RBM39 to DCAF15 (luciferase signal): dose-dependent luciferase signal increase

Source: US20230026360A1, “DETECTION OF MOLECULAR INTERACTIONS” (Orionis Biosciences, Inc., priority 2019, published 2023)
